# Results published in US6255517A, “Thymol derivatives having anti-tumor activity, and anti-cancer agent comprising the same” (Zee; Ok Pyo, priority 1998, dated 2001).
# Key:
# Type in all cases: cell-based
# [1] = tested on: HCT15; experiment: SRB cytotoxicity (anti-tumor activity) in vitro, HCT15; conditions: Homo sapiens, HCT-15, HCT15 colon adenocarcinoma, 48 hours, read-out: ED50 (the source's name)
# Source text: (§1) Anti-Tumor (Cyto-Toxicity) Effect in vitro of the Compound According to the Present Invention
# (§2) The method for detecting cyto-toxicity employed in the present experiment is Sulforhodamin B Bioassay (SRB) method, which was developed by National Cancer Institute (NCI) in the United States in 1989, for the purpose of measuring anti-tumor activity in vitro.
# (§3) The tumor cells used in the experiments via SRB method are listed below:
# HCT15: colon adenocarcinoma
# (§4) The tumor cells listed above are all human tumor cell-lines, which were distributed from NCI in the United States and subcultured in Korea Chemical Institute. As a culture medium, RPMI 1640 culture medium supplemented with 5% FBS (fetal bovine serum) was used. Cultivation was performed in an 5% CO2 incubator with constant temperature (37° C.) and humidity. The subculture was carried out every three or four days, and a solution of 0.25% tyrosine and 3 mM trans-1,2-diaminocyclohexane-n,n,n,n-tetracetic acid (CDTA) dissolved in PBS (phosphate buffered saline) was used in order to release cells from the surface of the container.
# (§5) The test compound synthesized according to the present invention was diluted to have a concentration of 30.0 μg/ml, 10.0 μg/ml, 3.0 μg/ml, 1.0 μg/ml, 0.3 μg/ml and 0.1 μg/ml, respectively, and the cyto-toxicity (anti-tumor activity) of the compound was measured. The maximum concentration of the sample was not more than 30.0 μg/ml. In order to prepare the samples for detection, DMSO (dimethylsulfoxide) was used, if necessary. The concentration of DMSO added was not more than 0.5%. Before added to the tumor cells, the sample solution, which was diluted via several steps, is filtered through a Millipore filter. In a sterile condition, the sample for detecting cyto-toxicity was prepared by means of SRB method using human tumor cell-lines such as A549, SK-OV-3, SK-MEL-2, XF498 and HCT15.
# (§6) The subcultured tumor cells were released from the surface of instrument by using tyrosine-CDTA solution, and then charged on a 96-well flat bottom microplate to make the cell number 5×10^3 (A549, HCT15), 1×10^4 (SK-MEL-2, XF498) and 2×10^4 (SK-OV-3) for each cell. The tumor cells are attached on the bottom by cultivating in a CO2 incubator. After removing the culture medium by using an aspirator, the medium is eliminated by using log dose of six concentrations. To each well, 100 μl of 10% TCA (trichloroacetic acid) is added, and the plate was left for 1 hour at 4° C. to fix the cells on the bottom surface of the plate.
# (§7) Then, the plate was washed with distilled water 5-6 times to completely remove the residual TCA solution, and dried up at room temperature. To each well of the completely dried plate, 100 μl of dye solution, in which 0.4% SRB solution was dissolved, was added to dye the cells for 30 minutes, and the cells were washed with 1% acetic acid to remove excess SRB which was not combined with the cells. The dyed cell plates were dried at room temperature, and 100 μl of 10 mM trisma base solution was added to each well. The solution was mixed by a titer plate shaker for 10 minutes to elute the dye solution. Then, the absorbance at 520 nm was measured by using a microplate reader.
# (§8) In order to calculate the cyto-toxicity (anti-tumor activity) of the samples on tumor cells, the number of tumor cells at the point of adding the sample (Tz, zero time), the number of cells when only an excess amount of culture medium was added instead of the sample and cultured for 48 hours (C, control), and the number of cells when each concentration of the sample was added and cultured for 48 hours (T, test) were measured respectively. The cyto-toxicity was determined according to the following formulas:
# (§9) When Tz>T: [(T-Tz)/(C-Tz)]×100
# (§10) When Tz<T: [(T-Tz)/Tz]×100
# (§11) From the calculated values thus obtained, ED50 (50% effective dose) [the concentration when the sample inhibits 50% of the growth of the tumor cells] was determined by the use of data regression tool of LOTUS program. […]
# [2] = tested on: SK-OV-3; experiment: SRB cytotoxicity (anti-tumor activity) in vitro, SK-OV-3; conditions: Homo sapiens, SK-OV-3 ovary adenocarcinoma, 48 hours, read-out: ED50 (the source's name)
# Source text: as §1, §2, §3
# SK-OV-3: adenocarcinoma, ovary malignant ascites
# as §4, §5, §6, §7, §8, §9, §10, §11
# [3] = tested on: SK-MEL-2; experiment: SRB cytotoxicity (anti-tumor activity) in vitro, SK-MEL-2; conditions: Homo sapiens, SK-MEL-2 malignant melanoma, 48 hours, read-out: ED50 (the source's name)
# Source text: as §1, §2, §3
# SK-MEL-2: malignant melanoma, metastasis to skin of thigh
# as §4, §5, §6, §7, §8, §9, §10, §11
# [4] = tested on: XF498; experiment: SRB cytotoxicity (anti-tumor activity) in vitro, XF498; conditions: Homo sapiens, XF498 central nerve system tumor, 48 hours, read-out: ED50 (the source's name)
# Source text: as §1, §2, §3
# XF498: central nerve system tumor
# as §4, §5, §6, §7, §8, §9, §10, §11
# [5] = tested on: A549; experiment: SRB cytotoxicity (anti-tumor activity) in vitro, A549; conditions: Homo sapiens; A549 non small cell lung carcinoma; SRB, 48 hours; read-out: ED50 (the source's name)
# Source text: as §1, §2, §3
# A549: non small cell lungcarcinoma
# as §4, §5, §6, §7, §8, §9, §10, §11
structure (smiles),measurement,setting,value
"C=C(CO)c1ccc(C)cc1OS(=O)(=O)c1ccc(C)cc1 [Compound 35-3, 2-(2-(4'-Toluenesulfoxy)-4-methylphenyl)-prop-2-ene-1-ol]",IC50,[1],13.9 µM
same,IC50,[2],14.6 µM
same,IC50,[3],17.9 µM
same,IC50,[4],14 µM
same,IC50,[5],13.1 µM
